The source of these data is ChEMBL document CHEMBL5518207, “Structure Guided Discovery of Novel Pan Metallo-β-Lactamase Inhibitors with Improved Gram-Negative Bacterial Cell Penetration” (J Med Chem, 2024).

Data set [1] relates to Pseudomonas aeruginosa. The data set can be described thus: Efflux ratio of MITC95 for potentiation of imipenem induced antibacterial activity against isogenic efflux wild type Pseudomonas aeruginosa MB9798 harbouring IMP to MITC95 for potentiation of imipenem induced antibacterial activity against isogenic efflux deleted mutant Pseudomonas aeruginosa MB9799 harbouring IMP. Format: functional.

The subject of a further data set is Escherichia coli. The data set can be described thus: Potentiation of imipenem induced antibacterial activity against Escherichia coli CLB30005 harbouring NDM-1 incubated for 18 to 22 hrs in presence of imipenem by spectrophotometer based analysis. Format: functional. The conditions noted are these: time 18-22 hrs.
Data set [2] can be described thus: Inhibition of GST tagged NDM-1 (unknown origin) expressed in Escherichia coli BL21 Star (DE3) competent cells using CCF2-FA as substrate incubated for 2 hrs by fluorescence based analysis.
Data set [3] relates to Pseudomonas aeruginosa. Put plainly: Potentiation of imipenem induced antibacterial activity against isogenic efflux deleted mutant Pseudomonas aeruginosa MB9799 harbouring IMP incubated for 18 to 22 hrs imipenem and beta lactamase inhibitor by spectrophotometer based analysis. The conditions noted are these: time 18-22 hrs. It is filed as functional.
Data set [4] deals with Pseudomonas aeruginosa. The data set can be described thus: Potentiation of imipenem induced antibacterial activity against isogenic efflux wild type Pseudomonas aeruginosa MB9798 harbouring IMP incubated for 18 to 22 hrs imipenem and beta lactamase inhibitor by spectrophotometer based analysis. It is filed as functional. The conditions noted are these: time 18-22 hrs.
Another data set has as its system Klebsiella pneumoniae. The data set can be described thus: Potentiation of imipenem induced antibacterial activity against Klebsiella pneumoniae IHMA599644 harbouring VIM-1 incubated for 18 to 22 hrs imipenem by spectrophotometer based analysis. Format: functional. The note with it: time 18-22 hrs.
The subject of another data set is Serratia marcescens. Put plainly: Potentiation of imipenem induced antibacterial activity against Serratia marcescens CL5741 harbouring IMP-1 incubated for 18 to 22 hrs imipenem by spectrophotometer based analysis. Format: functional. The conditions noted are these: time 18-22 hrs.
A short description of data set [5]: Inhibition of GST tagged VIM-2 (unknown origin) expressed in Escherichia coli BL21 Star (DE3) competent cells using CCF2-FA as substrate incubated for 2 hrs by fluorescence based analysis.
Data set [6] can be described thus: Inhibition of GST tagged VIM-1 (unknown origin) expressed in Escherichia coli BL21 Star (DE3) competent cells using CCF2-FA as substrate incubated for 2 hrs by fluorescence based analysis.
The nature of data set [7]: Inhibition of GST tagged IMP-1 (unknown origin) expressed in Escherichia coli BL21 Star (DE3) competent cells using CCF2-FA as substrate incubated for 2 hrs by fluorescence based analysis.
The nature of data set [8]: Volume of distribution at steady state in rat at 1 mg/kg, iv measured after 24 hrs by HPLC-MS analysis. The note with it: in vivo, read-out: Vdss. It is filed as ADME, organism-based.
Data set [9] is described as follows: Volume of distribution at steady state in Beagle dog at 1 mg/kg, iv measured after 24 hrs by HPLC-MS analysis. Format: ADME, organism-based, Canis lupus familiaris. The note with it: in vivo, read-out: Vdss.
Data set [10] is described as follows: AUC in Beagle dog at 1 mg/kg, iv measured after 24 hrs by HPLC-MS analysis. Format: ADME, organism-based, Canis lupus familiaris. The note with it: in vivo.
Data set [11] can be described thus: Unbound fraction in Beagle dog plasma at 1 mg/kg, iv measured after 24 hrs by HPLC-MS analysis. It is filed as ADME, organism-based, Canis lupus familiaris.
A short description of data set [12]: MRT in Beagle dog at 1 mg/kg, iv measured after 24 hrs by HPLC-MS analysis. It is filed as ADME, organism-based, Canis lupus familiaris. The conditions noted are these: in vivo.
Data set [13] is described as follows: Unbound fraction in rat plasma at 1 mg/kg, iv measured after 24 hrs by HPLC-MS analysis. It is filed as ADME, organism-based.
A short description of data set [14]: Cmax in rat at 1 mg/kg, iv measured after 24 hrs by HPLC-MS analysis. Format: ADME, organism-based. The conditions noted are these: in vivo.
Data set [15] in a line: Toxicity in Beagle dog assessed as severe adverse effect at 1 mg/kg, iv measured after 24 hrs by HPLC-MS analysis. It is filed as organism-based, Canis lupus familiaris. The conditions noted are these: in vivo.
Data set [16] in a line: Clearance in rat at 1 mg/kg, iv measured after 24 hrs by HPLC-MS analysis. Format: ADME, organism-based. The note with it: in vivo.
The nature of data set [17]: MRT in rat at 1 mg/kg, iv measured after 24 hrs by HPLC-MS analysis. The conditions noted are these: in vivo. It is filed as ADME, organism-based.
Data set [18] is described as follows: AUC in rat at 1 mg/kg, iv measured after 24 hrs by HPLC-MS analysis. The conditions noted are these: in vivo. Format: ADME, organism-based.
Data set [19] can be described thus: Cmax in Beagle dog at 1 mg/kg, iv measured after 24 hrs by HPLC-MS analysis. It is filed as ADME, organism-based, Canis lupus familiaris. The conditions noted are these: in vivo.
Data set [20] in a line: Clearance in Beagle dog at 1 mg/kg, iv measured after 24 hrs by HPLC-MS analysis. Format: ADME, organism-based, Canis lupus familiaris. The conditions noted are these: in vivo.

pIC50: −log10 of the molar value.

The term pIC50 denotes the negative decadic logarithm of the IC50, by convention in mol/L. Read a low pIC50 as a large IC50. For `Nc1ccc(-c2ccc(C(F)(F)F)c(S(N)(=O)=O)c2-c2nn[nH]n2)cn1`, the Ratio in the data set with Pseudomonas aeruginosa [1] was 128. The MITC95 with Escherichia coli was found to be 0.2 µM; in the data set with Pseudomonas aeruginosa [3] it was 1.56 µM; in the data set with Pseudomonas aeruginosa [4], 200 µM; in the data set with Klebsiella pneumoniae, 4.8 µM; in the data set on Serratia marcescens it was 0.4 µM. Also, the negative logarithm of the IC50 (pIC50) in data set [2] was 8.57; in data set [5] it was 8.51; in [6], 8.89; in data set [7], 8.16.
As for `N=C(N)NCc1ccc(-c2ccc(C(F)(F)F)c(S(N)(=O)=O)c2-c2nn[nH]n2)cc1`, in the data set on Pseudomonas aeruginosa [1], the Ratio worked out at 90. Further, the MITC95 in the data set with Escherichia coli turned out to be 0.3 µM; with Pseudomonas aeruginosa [3], 0.39 µM; in the data set with Pseudomonas aeruginosa [4], 35.4 µM; in the data set on Klebsiella pneumoniae, 0.8 µM; in the data set with Serratia marcescens, 0.06 µM. Moreover, the pIC50 in data set [2] was 8.41; in data set [6], 9.40; in data set [7], 8.47.
In the case of `Nc1ccc2cccc(-c3ccc(C(F)(F)F)c(S(N)(=O)=O)c3-c3nn[nH]n3)c2n1`, the Ratio in the data set with Pseudomonas aeruginosa [1] came to 16. The MITC95 in the data set with Escherichia coli stood at 1.6 µM; in the data set with Pseudomonas aeruginosa [3], 0.78 µM; in the data set with Pseudomonas aeruginosa [4], 12.5 µM; in the data set on Klebsiella pneumoniae, 3.1 µM; in the data set with Serratia marcescens, 3.1 µM. The pIC50 was 10.00 in data set [2], 9.40 in [6] and 9.10 in data set [7].
`Nc1nc2c(-c3ccc(CC4CCNCC4)c(S(N)(=O)=O)c3-c3nn[nH]n3)cccc2s1`: the Ratio in the data set with Pseudomonas aeruginosa [1] is recorded as 11. In addition, the MITC95 turned out to be 0.8 µM in the data set with Escherichia coli; 1.6 µM with Pseudomonas aeruginosa [3]; 18 µM in the data set with Pseudomonas aeruginosa [4]; 1.6 µM in the data set with Klebsiella pneumoniae; 3.1 µM in the data set with Serratia marcescens. Further, the pIC50 in data set [2] is 9.15; in data set [5] it was 8.68; in data set [6], 8.66; in data set [7], 7.72.
On to `Nc1nc2c(-c3ccc(C(F)(F)F)c(S(N)(=O)=O)c3-c3nn[nH]n3)cccc2s1`, for which the Ratio in the data set with Pseudomonas aeruginosa [1] worked out at 8. Also, the MITC95 in the data set with Escherichia coli turned out to be 3.1 µM; in the data set on Pseudomonas aeruginosa [3] it was 0.78 µM; in the data set with Pseudomonas aeruginosa [4], 6.3 µM; with Klebsiella pneumoniae, 3.1 µM; in the data set with Serratia marcescens, 1.6 µM. For the same compound, the negative logarithm of the IC50 (pIC50) was 9.70 in [2], 10.00 in data set [5], 9.40 in [6] and 9.00 in data set [7].
`Nc1ccc2ccc(-c3ccc(C(F)(F)F)c(S(N)(=O)=O)c3-c3nn[nH]n3)cc2n1`: in the data set with Pseudomonas aeruginosa [1], the Ratio is listed as 256. Moreover, the MITC95 in the data set on Escherichia coli was determined as 0.8 µM; with Pseudomonas aeruginosa [3] it was 0.39 µM; in the data set on Pseudomonas aeruginosa [4], 100 µM; in the data set with Klebsiella pneumoniae, 3.1 µM; in the data set on Serratia marcescens it was 3.1 µM. Moreover, the results for the pIC50 in data set [2], in [6] and in data set [7] were 8.96, 9.70 and 8.82, respectively.
As to `Nc1nc2cccc(-c3ccc(C(F)(F)F)c(S(N)(=O)=O)c3-c3nn[nH]n3)c2s1`, the Ratio in the data set with Pseudomonas aeruginosa [1] was determined as 32. For the same compound, the MITC95 with Escherichia coli was 1.6 µM; in the data set on Pseudomonas aeruginosa [3] it was 1.56 µM; in the data set on Pseudomonas aeruginosa [4], 50 µM; in the data set on Klebsiella pneumoniae, 6.3 µM; in the data set with Serratia marcescens, 6.3 µM. The results for the pIC50 in [2], in data set [6] and in data set [7] were 10.40, 10.00 and 9.10, respectively.
For `NCCCc1ccc(-c2cccc3sc(N)nc23)c(-c2nn[nH]n2)c1S(N)(=O)=O`, the Ratio in the data set with Pseudomonas aeruginosa [1] was determined as 16. In addition, the MITC95 was found to be 0.8 µM with Escherichia coli; 0.8 µM in the data set on Pseudomonas aeruginosa [3]; 12.5 µM in the data set on Pseudomonas aeruginosa [4]; 1.6 µM in the data set with Klebsiella pneumoniae; 1.6 µM with Serratia marcescens. Moreover, the pIC50 in data set [2] is 9.10; in data set [6] it was 8.74; in data set [7], 7.92.
With `NS(=O)(=O)c1c(C(F)(F)F)ccc(-c2ccc(NS(=O)(=O)C3CC3)cc2)c1-c1nn[nH]n1`, the Ratio with Pseudomonas aeruginosa [1] was found to be 64. Moreover, the MITC95 came to 6.3 µM with Escherichia coli; 0.78 µM in the data set on Pseudomonas aeruginosa [3]; 50 µM in the data set with Pseudomonas aeruginosa [4]; 12.5 µM in the data set with Klebsiella pneumoniae; 3.1 µM with Serratia marcescens. The figures for the pIC50 in [2], in data set [6] and in data set [7] were 9.52, 10.10 and 9.70, respectively.
With `Nc1nc2ccc(-c3ccc(C(F)(F)F)c(S(N)(=O)=O)c3-c3nn[nH]n3)cc2s1`, the Ratio with Pseudomonas aeruginosa [1] amounted to 128. The MITC95 in the data set on Escherichia coli came to 3.1 µM; in the data set on Pseudomonas aeruginosa [3], 1.56 µM; in the data set on Pseudomonas aeruginosa [4] it was 200 µM; in the data set with Klebsiella pneumoniae, 12.5 µM; with Serratia marcescens it was 3.1 µM. For the same compound, the pIC50 in [2] is 9.10; in data set [6] it was 9.52; in [7] it was 8.60.
Broadly, the AUC is concentration integrated over time. Read a high AUC as high exposure. As usually defined, the fraction unbound is the share of the substance not bound to proteins or other matrix. High values mean much free substance, low ones little free substance. The MRT is a mean duration of stay, worked out from the concentration-time curve. As a reminder, the Cmax is the highest concentration seen after dosing. A word on the clearance: it is a measure of how efficiently the substance is removed, as volume per time. `NS(=O)(=O)c1c(C(F)(F)F)ccc([C@H]2CC[C@H](N)CC2)c1-c1nnn[nH]1`: in the data set on Pseudomonas aeruginosa [1], the Ratio is 256. Also, the Vd in [8] stood at 0.45 L/kg; in [9] it was 0.31 L/kg. For the same compound, the MITC95 with Escherichia coli was 0.4 µM; in the data set on Pseudomonas aeruginosa [3], 0.78 µM; with Pseudomonas aeruginosa [4], 200 µM; with Klebsiella pneumoniae, 0.8 µM; in the data set on Serratia marcescens, 0.8 µM. For the same compound, the AUC at 24 h in data set [10] was 16.7 µM·h; in data set [18] it was 5 µM·h. Also, the fraction unbound at 24 h in data set [11] was 0.76; in data set [13], 0.78. Besides, the pIC50 was 7.87 in data set [2], 9.15 in [6] and 7.40 in [7]. Besides, the MRT in data set [12] stood at 2.03 h; in [17] it was 0.87 h. Besides, the Cmax in data set [14] was found to be 12.7 µM; in data set [19], 15 µM. Further, the Activity entry in data set [15] is reported as “Non-Toxic”. Further, the clearance in data set [16] is 8.7 mL/min/kg; in data set [20] it was 2.6 mL/min/kg.
